Measured values reported in US20140011889A1, “Resveratrol-Containing Compositions and Methods of Use for Cardiac-Related Diseases” (Resveratrol Partners, LLC, priority 2010, published 2014).

How the values were obtained:
brain tissue = test: Gene expression in brain tissue; format: in vivo, mice; details: mouse brain tissue
Excerpt: Similar effects have been observed in non-heart tissue.

[1] = test system: isolated perfused rat hearts; test: Isolated working rat heart, ischemia/reperfusion, cardiac function (Example 6); format: in vivo, Sprague-Dawley rats
Protocol: Isolated working heart preparation. After completing the feeding protocol, the animals were anesthetized with sodium pentobarbital (80 mg/kg, intraperitoneally) (Abbott Laboratories, North Chicago, Ill., USA), and heparin sodium (500 U/kg, intravenously) (Elkins-Sinn Inc., Cherry Hill, N.J., USA) was used as an anticoagulant. After deep anesthesia, the hearts were excised, the aorta was cannulated, and the hearts were perfused through the aorta in Langendorff mode at a constant (100 cm of water) perfusion pressure at 37° C. with Krebs-Henseleit bicarbonate for a 5 min washout period as described previously. Ray et al. (1999) Free Rad Biol Med 27:160-9.
During the washout period, the left atrium was cannulated, and the Langendorff preparation was switched to the working mode for 10 min with a left atrial filling pressure of 17 cm H2O; the aortic afterload pressure was set to 100 cm of water. At the end of 10 min, the baseline cardiac function such as heart rate (HR, beats/min), aortic flow (AF, ml/min), coronary flow (CF, ml/min), left ventricular developed pressure (LVDP, mmHg) and first derivative of developed pressure (LVdp/dt, mmHg/sec) were recorded. Later, 30 min of global ischemia was initiated by clamping the left atrial inflow and aortic outflow lines at a point close to their origins. After 30 min, reperfusion was initiated for 120 min by unclamping the atrial inflow and aortic outflow lines. The first 10 min of reperfusion was in Langendorff mode to avoid ventricular fibrillation, and then the hearts were switched to an anterograde working mode. Ray et al. (1999) Free Rad Biol Med 27:160-9.
Cardiac function assessment. After 10 min of the working mode, baseline parameters were recorded. To monitor the recovery of the heart, the left ventricular cardiac function was recorded after 60 and 120 min of reperfusion. Six rats were present in each group. […] Coronary flow was measured by timed collection of the coronary effluent dripping from the heart. During the entire experiment, the aortic pressure was monitored using a Gould P23XL pressure transducer (Gould Instrument Systems Inc., Valley View, Ohio, USA) connected to the side arm of the aortic cannula; the signal was amplified using a Gould 6600 series signal conditioner (Gould Instrument Systems Inc.). […] The heart rate, left ventricular developed pressure, and the first derivative of developed pressure were all calculated from the continuously generated pressure signal.
At the end of the 21 days, the animals were sacrificed, their hearts were excised and isolated, and ischemia was induced for 30 min by terminating the coronary flow (as described in the methods section). This was then followed by 2 h of reperfusion in the working mode; during the reperfusion left ventricular function was monitored.

[2] = test system: isolated perfused rat hearts; test: Myocardial infarct size, TTC staining (Example 6); format: in vivo, Sprague-Dawley rats
Protocol: Infarct size estimation. Infarct size was measured using the triphenyl tetrazolium chloride (TTC) staining method. Malik et al. […] After two hours of reperfusion, 40 ml of 1% (w/v) solution of TTC in phosphate buffer was infused into the aortic cannula, and the heart samples were stored at −70° C. for subsequent analysis. Sections (0.8 mm) of frozen heart were fixed in 2% paraformaldehyde, placed between two cover slips and digitally imaged using a Microtek ScanMaker 600z (Microtek, USA). To quantitate the areas of infarct in pixels, a standard National Institutes of Health image program was used. The infarct size was quantified and expressed in pixels. At the end of each experiment the hearts were either subjected to TTC staining to determine infarct size or TUNEL staining to detect apoptosis.

cardiomyocytes = test: Cardiomyocyte apoptosis, TUNEL (Example 6); format: in vivo, Sprague-Dawley rats
Protocol: Cardiomyocyte apoptosis. Immunochemical detection of apoptotic cells was performed using the terminal deoxynucleotidyl transferase-medicated dUTP nick-end labeling (TUNEL) method. Malik et al. […] The sections were incubated with mouse monoclonal antibody recognizing cardiac myosin heavy chain to specifically detect apoptotic cardiomyocytes. The fluorescence staining was viewed with a confocal laser microscope. The number of apoptotic cells was counted and expressed as a percent of the total myocyte population. At the end of each experiment the hearts were either subjected to TTC staining to determine infarct size or TUNEL staining to detect apoptosis.

[3] = test system: miRNA expression, rat heart; test: Global miRNA expression profiling (TLDA array) in ischemia-reperfused rat heart; details: for miR-21 expression, up: vs basal level control heart
Protocol: Global miRNA expression profiling in ischemia-reperfused rat heart. MicroRNA profiles were analyzed by TLDA array specific for 586 miRNA and five endogeneous control for rat.
Male Sprague-Dawley rats weighing between 250 and 300 g were fed ad libitum regular rat chow with free access to water until the start of the experimental procedure.
Micro RNA isolation and cDNA preparation. Total RNA from rat heart samples were isolated using Trizol reagent (Invitrogen) and further purified using mirVANA miRNA isolation kit (Ambion).
Profiling of miRNA expression. miRNA expression profiling were carried out using quantitative real-time PCR method by TaqManH Gene Signature Rodent Arrays on a 384 well micro fluidic card in 7900HT Realtime PCR machine (Applied Biosystem, Foster City) according to manufacturer's recommendation. Each miRNA were quantified by two specific amplicon primers and one specific probe. […] In addition, each array contains six control assays—five carefully selected candidate endogenous control assays, and one negative control assay.
Analyses of miRNA gene expression data. Realtime PCR data expressed as Ct values from array A and B were combined using R script (provided by GeneSpring Informatics Support Team) and processed using GeneSpringGX 11.0.2 software (Agilent Technologies, Santa Clara).

## Oc1ccc(/C=C/c2cc(O)cc(O)c2)cc1 [resveratrol, 3,4′,5-trihydroxy-trans-stilbene]
Brain tissue
  genes with altered expression, treatment and calorie reduced diets, number: 10 genes
[1]; 100 mg/kg, gavage 21 days
  aortic flow and developed pressure: no aortic flow or developed pressure
[1]; 2.5 and 25 mg/kg, gavage 21 days, 30 min ischemia, 2 h reperfusion
  cardioprotection (aortic flow, LVDP, maximum LVdP/dt): conferred cardioprotection
[1]; above 25 mg/kg, gavage 21 days
  ventricular function (aortic flow, LVDP, maximum LVdP/dt): ventricular function was deteriorated
[1]; rat, doses up to 100 mg/kg
  hormetic action (dose-response of cardioprotection): displayed hormetic action
[2]; 2.5 and 25 mg/kg
  myocardial infarct size: significantly reduced
[2]; above 50 mg/kg
  myocardial infarct size: significant increased
cardiomyocytes; 2.5 and 25 mg/kg
  cardiomyocyte apoptosis: significantly reduced
cardiomyocytes; above 50 mg/kg
  number of apoptotic cardiomyocytes: significant increased
[3]; FIG. 15C
  principal component analysis of miRNA expression, IR treated samples: remarkably similar to BL vehicle sample
[3]; IR
  miR-21 expression, up: 61.5 fold
[3]; basal level
  miR-21 expression, up: 391.4 fold
[3]; of the 25 miRNAs of Table 11, both treatments
  miRNAs whose up or down regulation in IR control was reversed in the opposite direction: 11
